In ChEMBL document CHEMBL2407027, “(3R,4S,5R,6R,7S)-3,4,5,7-Tetrahydroxyconidine, an azetidine analogue of 6,7-diepicastanospermine and a conformationally constrained d-deoxyaltronojirimycin, from l-arabinose” (Bioorg Med Chem, 2013) one finds inhibition data, which are given here for two compounds.

Experiment [1] concerns Aspergillus niger. Kind of experiment: Inhibition of Aspergillus niger amyloglucosidase at 1000 uM.
For experiment [2], the species on record is Sus scrofa. The experiment is described as follows: Inhibition of porcine kidney alpha,alpha-trehalase at 1000 uM.
Experiment [3] concerns the target T1, Beta-glucuronidase (Bos taurus) (UniProt A3KMY8).
T1 sequence (whole entry): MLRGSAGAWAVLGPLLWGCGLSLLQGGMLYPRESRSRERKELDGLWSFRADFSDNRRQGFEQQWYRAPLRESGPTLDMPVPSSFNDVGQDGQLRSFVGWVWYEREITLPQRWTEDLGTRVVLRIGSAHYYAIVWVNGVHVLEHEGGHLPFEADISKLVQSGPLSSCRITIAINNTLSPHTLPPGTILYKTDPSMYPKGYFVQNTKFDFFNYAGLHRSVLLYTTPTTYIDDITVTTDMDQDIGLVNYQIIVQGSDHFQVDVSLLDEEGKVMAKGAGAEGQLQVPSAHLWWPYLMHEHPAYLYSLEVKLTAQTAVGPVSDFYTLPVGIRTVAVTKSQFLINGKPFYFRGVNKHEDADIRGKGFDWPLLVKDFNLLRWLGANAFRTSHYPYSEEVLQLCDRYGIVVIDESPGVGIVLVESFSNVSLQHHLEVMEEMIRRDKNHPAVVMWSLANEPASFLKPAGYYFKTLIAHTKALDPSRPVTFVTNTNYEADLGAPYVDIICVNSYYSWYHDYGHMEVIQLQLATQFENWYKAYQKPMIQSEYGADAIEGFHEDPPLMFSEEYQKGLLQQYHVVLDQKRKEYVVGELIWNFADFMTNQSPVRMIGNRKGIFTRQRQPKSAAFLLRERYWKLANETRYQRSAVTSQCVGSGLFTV
Kind of experiment: Inhibition of bovine liver beta-glucuronidase at 1000 uM.

The subject of experiment [4] is Helix pomatia. The experiment is described as follows: Inhibition of snail beta-mannosidase at 1000 uM.
The species entered for experiment [5] is Rattus norvegicus. The experiment is described as follows: Inhibition of rat intestinal beta-galactosidase at 1000 uM.
The target in experiment [6] is T2, Beta-galactosidase (Bos taurus) (UniProt Q58D55).
T2 sequence (whole entry): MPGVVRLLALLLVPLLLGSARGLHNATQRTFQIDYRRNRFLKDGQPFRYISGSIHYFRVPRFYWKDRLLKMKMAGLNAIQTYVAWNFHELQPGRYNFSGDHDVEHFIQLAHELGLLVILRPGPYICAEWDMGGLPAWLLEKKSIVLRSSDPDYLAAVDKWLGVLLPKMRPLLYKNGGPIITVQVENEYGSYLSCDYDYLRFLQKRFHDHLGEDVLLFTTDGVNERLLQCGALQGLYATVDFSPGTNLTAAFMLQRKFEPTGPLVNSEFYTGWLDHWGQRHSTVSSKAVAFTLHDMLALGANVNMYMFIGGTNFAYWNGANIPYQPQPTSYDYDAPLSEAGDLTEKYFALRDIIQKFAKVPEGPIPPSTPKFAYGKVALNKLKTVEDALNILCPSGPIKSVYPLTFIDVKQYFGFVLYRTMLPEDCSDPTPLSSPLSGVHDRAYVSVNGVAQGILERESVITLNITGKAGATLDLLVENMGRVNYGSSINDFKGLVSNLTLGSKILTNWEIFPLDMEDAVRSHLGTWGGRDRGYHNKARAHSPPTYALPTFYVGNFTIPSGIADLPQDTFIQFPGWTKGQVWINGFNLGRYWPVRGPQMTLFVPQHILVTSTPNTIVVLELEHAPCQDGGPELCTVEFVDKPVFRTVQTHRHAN
Kind of experiment: Inhibition of bovine liver beta-galactosidase at 1000 uM.

The test system of experiment [7] is Coffea. Kind of experiment: Inhibition of coffee beans alpha-galactosidase at 1000 uM.
Experiment [8] deals with Aspergillus niger. Kind of experiment: Inhibition of Aspergillus niger beta-glucosidase at 1000 uM.
The subject of experiment [9] is Prunus dulcis. The experiment is described as follows: Inhibition of almond beta-glucosidase at 1000 uM.
Experiment [10] addresses T3, Alpha-glucosidase (Aspergillus niger) (UniProt P56526).
T3 sequence (whole entry): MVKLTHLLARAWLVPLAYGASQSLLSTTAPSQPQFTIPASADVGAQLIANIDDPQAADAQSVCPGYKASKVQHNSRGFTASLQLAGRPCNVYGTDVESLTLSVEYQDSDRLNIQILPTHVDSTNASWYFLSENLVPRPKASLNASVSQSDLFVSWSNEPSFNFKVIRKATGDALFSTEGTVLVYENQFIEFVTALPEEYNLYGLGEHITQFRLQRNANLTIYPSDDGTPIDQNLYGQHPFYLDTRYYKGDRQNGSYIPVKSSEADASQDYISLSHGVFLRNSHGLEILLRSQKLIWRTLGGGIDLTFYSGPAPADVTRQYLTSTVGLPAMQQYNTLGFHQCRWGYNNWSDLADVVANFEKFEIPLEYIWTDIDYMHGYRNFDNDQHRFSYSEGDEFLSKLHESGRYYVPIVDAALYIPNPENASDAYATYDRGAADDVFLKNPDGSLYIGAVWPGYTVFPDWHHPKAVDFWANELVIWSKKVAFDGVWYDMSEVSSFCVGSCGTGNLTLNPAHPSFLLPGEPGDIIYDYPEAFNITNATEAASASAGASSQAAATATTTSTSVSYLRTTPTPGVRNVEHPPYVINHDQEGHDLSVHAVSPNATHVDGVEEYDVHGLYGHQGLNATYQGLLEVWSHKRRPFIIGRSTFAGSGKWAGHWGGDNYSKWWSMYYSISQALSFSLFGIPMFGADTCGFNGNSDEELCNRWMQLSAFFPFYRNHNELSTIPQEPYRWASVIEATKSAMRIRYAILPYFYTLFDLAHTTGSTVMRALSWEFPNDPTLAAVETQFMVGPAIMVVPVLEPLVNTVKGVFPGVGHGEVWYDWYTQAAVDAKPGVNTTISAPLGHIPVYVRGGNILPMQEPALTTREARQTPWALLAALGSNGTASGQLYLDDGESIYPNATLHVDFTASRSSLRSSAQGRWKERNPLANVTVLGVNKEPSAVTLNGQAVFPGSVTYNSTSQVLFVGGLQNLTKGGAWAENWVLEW
The experiment is described as follows: Inhibition of Aspergillus niger alpha-glucosidase at 1000 uM.

For experiment [11], the system named is Saccharomyces cerevisiae. Kind of experiment: Inhibition of yeast alpha-glucosidase at 1000 uM.
For experiment [12], the species on record is Rattus norvegicus. Kind of experiment: Inhibition of rat intestinal alpha-glucosidase at 1000 uM.
Experiment [13] has as its system Oryza sativa. The experiment is described as follows: Inhibition of rice alpha-glucosidase at 1000 uM.

The structures appear in SMILES notation.

Consider `O=C1CC[C@H](O)[C@H]2[C@@H](O)CN12`, for which the inhibition in experiment [1] was 3%; in experiment [2] it was 5.2%; in [3], 4.2%; in experiment [4], 0%; in experiment [5], 0%; in [6], 13.4%. Moreover, the inhibition in experiment [7] came out at 0%; in experiment [8] it was 1.2%; in experiment [9], 0%; in experiment [10] it was 0%; in experiment [11] it was 3.1%; in experiment [12], 25.2%. In experiment [13], this compound came in with an inhibition of 2.7%.

As to `OC[C@H]1NC[C@@H](O)[C@H](O)[C@@H]1O`, the inhibition in [1] amounted to 5%; in [2] it was 2.1%; in experiment [3], 7.4%; in experiment [4], 0%; in experiment [5] it was 44.6%; in [6], 19.9%. The inhibition amounted to 20.5% in [7]; 1.8% in experiment [8]; 18.8% in experiment [9]; 19.1% in experiment [10]; 1.4% in [11]; 24.2% in [12]. The same compound gave an inhibition in experiment [13] of 7.2%.

Usually inhibition stands for the drop in the measured response relative to a control, in per cent.
